According to patent US6472348B1, “Pyridone derivatives and herbicides” (Kumiai Chemical Industry Co., Ltd., priority 1996, dated 2002):

Legend:
soybean (Gl) = assay: Test Example 6: crop plant selectivity by upland field soil treatment (soybean), phytotoxicity; type: in vivo; parameters: scale not given here; conditions: 21st day after application
Summary of the method: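 Scoring took place 21 days after treatment using a set grading standard, covering both weed control and soybean injury. Seeds of soybean and weed species went into sand-filled pots under a soil cover before soil treatment and greenhouse culture.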

bulrush (Sc) = assay: Test Example 1: herbicidal effects by paddy field soil treatment; type: in vivo; conditions: 100 g of the active ingredient per 10 ares, 21st day after the application, index 0-5 of Table 47;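 also: grade of growth control; 5 = at least 90%; 4 = 70 to 90%; 3 = 50 to 70%; 2 = 30 to 50%; 1 = 10 to 30%; 0 = under 10%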
Summary of the method: (§1)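 Flooded paddy-soil pots (3 cm water) sown after puddling/leveling; treatment 100 g a.i./10 ares; greenhouse culture; herbicidal effect rated visually on a scoring scale at 21 d post-application.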

barnyardgrass (Ec) = assay: as above; type: in vivo; conditions: 100 g of the active ingredient per 10 ares, 21st day after the application, index 0-5 of Table 47;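 also: grade of growth control; 5 = at least 90%; 4 = 70 to 90%; 3 = 50 to 70%; 2 = 30 to 50%; 1 = 10 to 30%; 0 = under 10%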
Summary of the method: as §1

monochoria (Mo) = assay: as above; type: in vivo; conditions: 100 g of the active ingredient per 10 ares, 21st day after the application, index 0-5 of Table 47;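 also: grade of growth control; 5 = at least 90%; 4 = 70 to 90%; 3 = 50 to 70%; 2 = 30 to 50%; 1 = 10 to 30%; 0 = under 10%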
Summary of the method: as §1

corn (Ze) = assay: Test Example 11: crop plant selectivity by upland field foliage treatment (corn), phytotoxicity
Summary of the method: (§2)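 Corn and the weed species were sown together in sand-filled pots and grown in a greenhouse for 2 weeks before foliar treatment. Herbicidal effect was scored on day 14 after treatment against a graded standard scale, with corn phytotoxicity scored alongside.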

pale smartweed (Po) = assay: Test Example 11: crop plant selectivity by upland field foliage treatment (corn), herbicidal effects; type: in vivo; parameters: scale not given here
Summary of the method: as §2

[1] = system: common lambsquarters (Ch); assay: as above; type: in vivo; parameters: scale not given here
Summary of the method: as §2

China jute (Ab) = assay: as above; type: in vivo; parameters: scale not given here
Summary of the method: as §2

[2] = corn, foliage treatment, dose 1.6 g ai/10a, evaluated on 14th day after treatment, index per Table 47
[3] = pale smartweed, foliage treatment, dose 1.6 g ai/10a, evaluated on 14th day after treatment, index per Table 47
[4] = common lambsquarters, foliage treatment, dose 1.6 g ai/10a, evaluated on 14th day after treatment, index per Table 47
[5] = China jute, foliage treatment, dose 1.6 g ai/10a, evaluated on 14th day after treatment, index per Table 47
[6] = upland field foliage treatment, dose 1.6 g ai/10a, 14th day after treatment
[7] = upland field foliage treatment (corn test), dose 1.6 g ai/10a, 14th day after treatment
[8] = upland field foliage treatment (corn test), dose 0.1 g ai/10a, 14th day after treatment

Row | Structure (SMILES) | Phytotoxicity Gl (soybean (Gl); dose 1.6 g ai/10a) | Herbicidal effects Sc (bulrush (Sc)) | Herbicidal effects Ec (barnyardgrass (Ec)) | Herbicidal effects Mo (monochoria (Mo)) | Phytotoxicity Ze (corn (Ze); [2]) | Herbicidal effects Po (pale smartweed (Po); [3]) | Herbicidal effects Ch [1, 4] | Herbicidal effects Ab (China jute (Ab); [5]) | Phytotoxicity Ze (corn (Ze); [6]) | Herbicidal effects Po (pale smartweed (Po); [7]) | Herbicidal effects Ch [1, 7] | Herbicidal effects Ab (China jute (Ab); [7]) | Phytotoxicity Gl (soybean (Gl); dose 6.3 g ai/10a) | Phytotoxicity Ze (corn (Ze); upland field foliage treatment, dose 0.1 g ai/10a, 14th day after treatment) | Herbicidal effects Po (pale smartweed (Po); [8]) | Herbicidal effects Ch [1, 8] | Herbicidal effects Ab (China jute (Ab); [8]) | melting point
1 | C#CC(C)Oc1cc(-c2cn(C)c(C(F)(F)F)cc2=O)c(F)cc1Cl (racemic) [Compound 6-10] | 0 | 5 | 5 | 5 | 1 | 4 | 5 | 5 | – | – | – | – | – | – | – | – | – | –
2 | COc1cc(-c2ccc(C(F)(F)F)n(C)c2=O)c(F)cc1Cl [1-15] | 2 | 5 | 5 | 5 | – | – | – | – | – | – | – | – | – | – | – | – | – | –
3 | C=CCOc1cc(-c2ccc(C(F)(F)F)n(C)c2=O)c(F)cc1Cl [1-16] | 1 | 5 | 5 | 5 | – | – | – | – | 2 | 5 | 5 | 5 | – | – | – | – | – | –
4 | C#CC(C)Oc1cc(-c2ccc(C(F)(F)F)n(C)c2=O)c(F)cc1Cl (centres unmarked) [1-17] | 0 | 5 | 5 | 5 | – | – | – | – | – | – | – | – | – | – | – | – | – | –
5 | C#CCOc1cc(-c2ccc(C(F)(F)F)n(C)c2=O)c(F)cc1Cl [1-18] | 1 | 5 | 5 | 5 | – | – | – | – | 2 | 5 | 5 | 5 | – | – | – | – | – | –
6 | Cn1c(C(F)(F)F)ccc(-c2cc(OCC#N)c(Cl)cc2F)c1=O [1-25] | – | 5 | 5 | 5 | – | – | – | – | 2 | 5 | 5 | 5 | 2 | – | – | – | – | –
7 | C#CCOc1cc(-c2ccc(C(F)(F)F)n(C)c2=O)c(Cl)cc1Cl [1-30] | 1 | 5 | 5 | 5 | – | – | – | – | 2 | 5 | 5 | 5 | – | – | – | – | – | –
8 | CC(C)Sc1cc(-c2ccc(C(F)(F)F)n(C)c2=O)c(F)cc1Cl [1-43] | – | 5 | 5 | 5 | – | – | – | – | – | – | – | – | 1 | – | – | – | – | –
9 | C#CCSc1cc(-c2ccc(C(F)(F)F)n(C)c2=O)c(F)cc1Cl [1-44] | – | 5 | 5 | 5 | – | – | – | – | – | – | – | – | 1 | – | – | – | – | –
10 | CCOC(=O)c1cc(-c2ccc(C(F)(F)F)n(C)c2=O)c(F)cc1Cl [1-65] | 1 | 5 | 5 | 5 | – | – | – | – | 2 | 5 | 5 | 5 | 1 | – | – | – | – | –
11 | Cc1cc(-c2ccc(C(F)(F)F)n(C)c2=O)c(F)cc1Cl [1-90] | 2 | 5 | 5 | 5 | – | – | – | – | – | – | – | – | 2 | – | – | – | – | –
12 | COCSc1cc(-c2ccc(C(F)(F)F)n(C)c2=O)c(F)cc1Cl [1-91] | 0 | 5 | 5 | 5 | – | – | – | – | – | – | – | – | 1 | – | – | – | – | –
13 | Cn1c(C(F)(F)F)ccc(-c2cc(Cl)c(Cl)cc2F)c1=O [1-136] | 0 | 5 | 5 | 5 | – | – | – | – | – | – | – | – | 1 | – | – | – | – | –
14 | Cn1c(C(F)(F)F)ccc(-c2cc(OCC(F)(F)F)c(Cl)cc2F)c1=O [1-155] | 0 | 5 | 5 | 5 | – | – | – | – | – | – | – | – | 0 | – | – | – | – | –
15 | Cn1c(C(F)(F)F)ccc(-c2cc(OCC3CC3)c(Cl)cc2F)c1=O [1-160] | – | 5 | 5 | 5 | – | – | – | – | – | – | – | – | 1 | – | – | – | – | –
16 | C#CCOc1cc(-c2ccc(C(F)(F)F)n(N)c2=O)c(F)cc1Cl [1-178] | – | 5 | 5 | 5 | – | – | – | – | 2 | 5 | 5 | 5 | – | – | – | – | – | –
17 | COc1cc(-c2ccc(C(F)(F)F)n(N)c2=O)c(F)cc1Cl [1-179] | – | 5 | 5 | 5 | – | – | – | – | 1 | 5 | 5 | 5 | – | – | – | – | – | –

Row | Structure (SMILES) | Phytotoxicity Gl (soybean (Gl); dose 1.6 g ai/10a) | Herbicidal effects Sc (bulrush (Sc)) | Herbicidal effects Ec (barnyardgrass (Ec)) | Herbicidal effects Mo (monochoria (Mo)) | Phytotoxicity Ze (corn (Ze); [2]) | Herbicidal effects Po (pale smartweed (Po); [3]) | Herbicidal effects Ch [1, 4] | Herbicidal effects Ab (China jute (Ab); [5]) | Phytotoxicity Ze (corn (Ze); [6]) | Herbicidal effects Po (pale smartweed (Po); [7]) | Herbicidal effects Ch [1, 7] | Herbicidal effects Ab (China jute (Ab); [7]) | Phytotoxicity Gl (soybean (Gl); dose 6.3 g ai/10a) | Phytotoxicity Ze (corn (Ze); upland field foliage treatment, dose 0.1 g ai/10a, 14th day after treatment) | Herbicidal effects Po (pale smartweed (Po); [8]) | Herbicidal effects Ch [1, 8] | Herbicidal effects Ab (China jute (Ab); [8]) | melting point
18 | CCOCOc1cc(-c2ccc(C(F)(F)F)n(C)c2=O)c(F)cc1Cl [1-181] | – | 5 | 5 | 5 | – | – | – | – | 2 | 5 | 5 | 5 | 1 | – | – | – | – | –
19 | C#CC(C)Oc1cc(Cl)cc(F)c1-c1ccc(C(F)(F)F)n(C)c1=O (centres unmarked) [1′-5] | 1 | 5 | 5 | 5 | – | – | – | – | 1 | 5 | 5 | 5 | 2 | – | – | – | – | –
20 | C=CC(C)Oc1cc(-c2ccc(C(F)(F)F)n(C)c2=O)c(F)cc1Cl (centres unmarked) [Compound 1-182] | – | 5 | 5 | 5 | – | – | – | – | 1 | 5 | 5 | 5 | 1 | – | – | – | – | –
21 | CCOC(=O)CON=Cc1cc(-c2ccc(C(F)(F)F)n(C)c2=O)c(F)cc1Cl [Compound 1-191] | – | 5 | 5 | 5 | – | – | – | – | 2 | 5 | 5 | 5 | 2 | – | – | – | – | –
22 | C=CC(O)c1cc(-c2ccc(C(F)(F)F)n(C)c2=O)c(F)cc1Cl (centres unmarked) [Compound 1-197] | – | 5 | 5 | 5 | – | – | – | – | 2 | 5 | 5 | 5 | 1 | – | – | – | – | –
23 | C#CC(O)c1cc(-c2ccc(C(F)(F)F)n(C)c2=O)c(F)cc1Cl (centres unmarked) [Compound 1-202] | 2 | 5 | 5 | 5 | – | – | – | – | – | – | – | – | – | – | – | – | – | –
24 | C=CCN1C(=O)COc2cc(F)c(-c3ccc(C(F)(F)F)n(C)c3=O)cc21 [Compound 2-7] | 0 | 5 | 5 | 5 | – | – | – | – | – | – | – | – | 0 | – | – | – | – | –
25 | C#CCN1C(=O)COc2cc(Cl)c(-c3ccc(C(F)(F)F)n(C)c3=O)cc21 [Compound 2-25] | 0 | 5 | 5 | 5 | – | – | – | – | 2 | 5 | 5 | 5 | 1 | – | – | – | – | –
26 | C=CCN1C(=O)COc2cc(Cl)c(-c3ccc(C(F)(F)F)n(C)c3=O)cc21 [Compound 2-26] | – | 5 | 5 | 5 | – | – | – | – | 2 | 5 | 5 | 5 | 1 | – | – | – | – | –
27 | Cc1cc2c(-c3ccc(C(F)(F)F)n(C)c3=O)c(F)cc(Cl)c2o1 [Compound 4-1] | 1 | 5 | 5 | 5 | – | – | – | – | – | – | – | – | 2 | – | – | – | – | –
28 | CCc1cc2c(-c3ccc(C(F)(F)F)n(C)c3=O)c(F)cc(Cl)c2o1 [Compound 4-2] | 1 | 5 | 5 | 5 | – | – | – | – | – | – | – | – | – | – | – | – | – | –
29 | C#CCN1C(=O)COc2cc(F)c(-c3cn(C)c(C(F)(F)F)cc3=O)cc21 [Compound 7-1] | – | 5 | 5 | 5 | 2 | 5 | 5 | 5 | – | – | – | – | 1 | – | – | – | – | –
30 | CON=Cc1cc(-c2ccc(C(F)(F)F)n(C)c2=O)c(F)cc1Cl [Compound No. 1-72, 5-(1-methyl-6-trifluoromethyl-2(1H)-pyridon-3-yl)-2-chloro-4-fluorobenzaldehydeoxime-O-methyl ether] | 1 | 5 | 5 | 5 | – | – | – | – | 2 | 5 | 5 | 5 | 2 | – | – | – | – | –
31 | CCCC(=O)c1cc(-c2ccc(C(F)(F)F)n(C)c2=O)c(F)cc1Cl [Compound No. 1-194, 3-[4-chloro-2-fluoro-5-(1-oxobutyl)phenyl]-1-methyl-6-trifluoromethyl-2(1H)-pyridone] | – | 5 | 5 | 5 | – | – | – | – | 1 | 5 | 5 | 5 | 1 | – | – | – | – | –
32 | C#CCN1C(=O)COc2cc(F)c(-c3ccc(C(F)(F)F)n(C)c3=O)cc21 [Compound No. 2-1, 3-[7-fluoro-2,3-dihydro-4-(2-propynyl)-1,4-benzoxazin-3-on-6-yl]-1-methyl-6-trifluoromethyl-2(1H)-pyridone] | 0 | 5 | 5 | 5 | – | – | – | – | – | – | – | – | 1 | 0 | 5 | 5 | 5 | –
33 | C#CCn1c(=O)sc2cc(F)c(-c3ccc(C(F)(F)F)n(C)c3=O)cc21 [Compound No. 3-1, 3-[6-fluoro-3-(2-propynyl)-benzothiazolin-2-on-5-yl]-1-methyl-6-trifluoromethyl-2(1H)-pyridone] | – | 5 | 5 | 5 | – | – | – | – | – | – | – | – | 1 | – | – | – | – | 150 to 151 °C
